Measurements: patent US5574043A, “Certain [1,2,5-thiadiazol-4-yl]-1-azabicyclo [3.2.1]octane derivatives and their pharmaceutical uses” (Novo Nordisk A/S, priority 1995, dated 1996)
Counter-ions that a name gives are not always drawn.

These compounds were tested against muscarinic acetylcholine receptors (assay: Inhibition of specific binding of 3H-Oxotremorine-M (OXO BINDING) in vitro, rat cortex). Conditions: rat cortex homogenate, 3H-Oxotremorine 1.0 nM, 30 min at 25° C., pH 7.4.
Design: species or system male Wistar rats
From the text: The pharmacological properties of the compounds of the invention can be illustrated by determining their capability to inhibit the specific binding of ^3 H-Oxotremorine-M (^3 H-Oxo). Birdsdall N. J. M., Hulme E. C., and Burgen A. S. V. (1980). "The Character of Muscarinic Receptors in Different Regions of the Rat Brain". Proc. Roy. Soc. London (Series B) 207,1.
^3 H-Oxo labels muscarinic receptor in the CNS (with a preference for agonist domains of the receptors). Three different sites are labelled by ^3 H-Oxo. […] Using the present experimental conditions only the high and medium affinity sites are determined.
The inhibitory effects of compounds on ^3 H-Oxo binding reflects the affinity for muscarinic acetylcholine receptors.
All preparations are performed at 0°-4° C. unless otherwise indicated. Fresh cortex (0.1-1 g) from male Wistar rats (150-250 g) is homogenized for 5-10 s in 10 ml 20 mM Hepes pH: 7.4, with an Ultra-Turrax homogenizer. The homogenizer, is rinsed with 10 ml of buffer and the combined suspension centrifuged for 15 min at 40,000×g. The pellet is washed three times with buffer. In each step the pellet is homogenized as before in 2×10 ml of buffer and centrifuged for 10 min at 40,000×g.
The final pellet is homogenized in 20 mM Hepes pH: 7.4 (100 ml per g of original tissue) and used for binding assay. Aliquots of 0.5 ml is added 25 μl of test solution and 25 μl of ^3 H-Oxotremorine (1.0 nM, final concentration) mixed and incubated for 30 min at 25° C. Non-specific binding is determined in triplicate using arecoline (1 μg/ml, final concentration) as the test substance. After incubation samples are added 5 ml of ice-cold buffer and poured directly onto Whatman GF/C glass fibre filters under suction and immediately washed 2 times with 5 ml of ice-cold buffer. The amount of radioactivity on the filters are determined by conventional liquid scintillation counting. Specific binding is total binding minus non specific binding.
Test substances are dissolved in 10 ml water (if necessary heated on a steam bath for less than 5 minutes) at a concentration of 2.2 mg/ml.
The test value will be given as IC50 (the concentration (ng/ml) of the test substance which inhibits the specific binding of ^3 H-Oxo by 50%).
IC50 =(applied test substance concentration) [formula] where Co is specific binding in control assays and Cx is the specific binding in the test assay. (The calculations assume normal mass-action kinetics).

Question: For CCCCSc1nsnc1C1CN2CCC1CC2.O=C(O)C(O)C(O)C(=O)O (single isomer, unassigned) [Compound 56, (+) 3-(3-Butylthio-1,2,5-thiadiazol-4-yl)-1-azabicyclo[2.2.2]octane (-)D-tartrate], which “Inhibition in vitro OXO BINDING IC50” value is on record?
Answer: Its value is 0.14 ng/mL.

Question: For CCCCSc1nsnc1[C@@H]1CN2CCC[C@@H]1C2 (single isomer, unassigned) [Compound 111, (+)-Exo-6-(3-butylthio-1,2,5-thiadiazol-4-yl)-1-azabicyclo[3.2.1]octane (+) L-tartrate], which “Inhibition in vitro OXO BINDING IC50” value is on record?
Answer: The value was 0.32 ng/mL.

Question: How did the “Inhibition in vitro OXO BINDING IC50” value turn out when CCCCSc1nsnc1[C@@H]1CN2CCC[C@@H]1C2 (single isomer, unassigned) [Compound 112, (-)-Exo-6-(3-butylthio-1,2,5-thiadiazol-4-yl)-1-azabicyclo[3.2.1]octane (-) D-tartrate] was run?
Answer: Its value is 0.19 ng/mL.

Question: For CCCSc1nsnc1[C@@H]1CN2CCC[C@@H]1C2 (single isomer, unassigned) [Compound 113, (+)-Exo-6-(3-propylthio-1,2,5-thiadiazol-4-yl)-1-azabicyclo[3.2.1]octane (+) L-tartrate], which “Inhibition in vitro OXO BINDING IC50” value is on record?
Answer: Its value is 0.26 ng/mL.

Question: CCCSc1nsnc1[C@@H]1CN2CCC[C@@H]1C2 (single isomer, unassigned) [Compound 114, (-)-Exo-6-(3-propylthio-1,2,5-thiadiazol-4-yl)-1-azabicyclo[3.2.1]octane (-) D-tartrate] was tested. Which “Inhibition in vitro OXO BINDING IC50” value did it give?
Answer: The value was 0.15 ng/mL.

Question: FC(F)(F)CCCSc1nsnc1[C@@H]1CN2CCC[C@@H]1C2 (single isomer, unassigned) [Compound 130, (+)-Exo-6-(3-(4,4,4-trifluoro-1-butylthio)-1,2,5-thiadiazol-4-yl)-1-azabicyclo[3.2.1]octane oxalate] was tested. Which “Inhibition in vitro OXO BINDING IC50” value did it give?
Answer: The value was 0.60 ng/mL.

Question: Which “Inhibition in vitro OXO BINDING IC50” value does the source give for Clc1nsnc1C1(Cl)CN2CCC1CC2.O=C(O)C(=O)O (stereo not shown) [Compound 1, 3-Chloro-3-(3-chloro-1,2,5-thiadiazol-4-yl)-1-azabicyclo[2.2.2]-octane oxalate] here?
Answer: The value was 156 ng/mL.

Question: How did the “Inhibition in vitro OXO BINDING IC50” value turn out when O=C(O)C(=O)O.OC1(c2nsnc2Cl)CN2CCC1CC2 (stereo not shown) [Compound 2, 3-(3-Chloro-1,2,5-thiadiazol-4-yl)-3-hydroxy-1-azabicyclo[2.2.2]octane oxalate] was run?
Answer: Its value is 270 ng/mL.

Question: With COc1nsnc1C1(OC)CN2CCC1CC2.O=C(O)C(=O)O (stereo not shown) [Compound 3, 3-Methoxy-3-(3-methoxy-1,2,5-thiadiazol-4-yl)-1-azabicyclo[2.2.2]octane oxalate] as the compound, how does the “Inhibition in vitro OXO BINDING IC50” value read?
Answer: The value was 208 ng/mL.

Question: How did the “Inhibition in vitro OXO BINDING IC50” value turn out when COc1nsnc1C1=CN2CCC1CC2.O=C(O)C(=O)O [Compound 4, 3-(3-Methoxy-1,2,5-thiadiazol-4-yl)-1-azabicyclo[2.2.2]oct-2-ene oxalate] was run?
Answer: The value was 21 ng/mL.

Question: CCCCCCOc1nsnc1C1=CN2CCC1CC2.O=C(O)C(=O)O [Compound 5, 3-(3-Hexyloxy-1,2,5-thiadiazol-4-yl)-1-azabicyclo[2.2.2]oct-2-ene oxalate] was tested. Which “Inhibition in vitro OXO BINDING IC50” value did it give?
Answer: Its value is 18 ng/mL.

Question: For CCCCCCOc1nsnc1C1(OCCCCCC)CN2CCC1CC2.O=C(O)C(=O)O (stereo not shown) [Compound 6, 3-Hexyloxy-3-(3-hexyloxy-1,2,5-thiadiazol-4-yl)-1-azabicyclo[2.2.2]octane oxalate], which “Inhibition in vitro OXO BINDING IC50” value is on record?
Answer: Its value is greater than 300 ng/mL.

Question: How did the “Inhibition in vitro OXO BINDING IC50” value turn out when CCCCCCOc1nsnc1C1(O)CN2CCC1CC2.O=C(O)C(=O)O (stereo not shown) [Compound 7, 3-(3-Hexyloxy-1,2,5-thiadiazol-4-yl)-3-hydroxy-1-azabicyclo[2.2.2]octane oxalate] was run?
Answer: The value was 13 ng/mL.

Question: For Clc1nsnc1C1CN2CCC1CC2.O=C(O)C(=O)O (stereo not shown) [Compound 8, 3-(3-Chloro-1,2,5-thiadiazol-4-yl)-1-azabicyclo[2.2.2]octane oxalate], which “Inhibition in vitro OXO BINDING IC50” value is on record?
Answer: The value was 5.2 ng/mL.

Question: With CCOc1nsnc1C1CN2CCC1CC2.O=C(O)/C=C/C(=O)O (stereo not shown) [Compound 9, 3-(3-Ethoxy-1,2,5-thiadiazol-4-yl)-1-azabicyclo[2.2.2]octane fumarate] as the compound, how does the “Inhibition in vitro OXO BINDING IC50” value read?
Answer: Its value is 0.69 ng/mL.

Question: CCCOc1nsnc1C1CN2CCC1CC2.O=C(O)/C=C/C(=O)O (stereo not shown) [Compound 10, 3-(3-Propoxy-1,2,5-thiadiazol-4-yl)-1-azabicyclo[2.2.2]octane fumarate] was tested. Which “Inhibition in vitro OXO BINDING IC50” value did it give?
Answer: The value was 1.7 ng/mL.

Question: How did the “Inhibition in vitro OXO BINDING IC50” value turn out when CCCCCCOc1nsnc1C1CN2CCC1CC2.O=C(O)/C=C/C(=O)O (stereo not shown) [Compound 11, 3-(3-Hexyloxy-1,2,5-thiadiazol-4-yl)-1-azabicyclo[2.2.2]octane fumarate] was run?
Answer: The value was 1.2 ng/mL.

Question: CCCCCSc1nsnc1C1CN2CCC1CC2.O=C(O)/C=C/C(=O)O (stereo not shown) [Compound 12, 3-(3-Pentylthio-1,2,5-thiadiazol-4-yl)-1-azabicyclo[2.2.2]octane fumarate] was tested. Which “Inhibition in vitro OXO BINDING IC50” value did it give?
Answer: Its value is 0.45 ng/mL.

Question: With CCCCSc1nsnc1C1CN2CCC1CC2.O=C(O)/C=C/C(=O)O (stereo not shown) [Compound 13, 3-(3-Butylthio-1,2,5-thiadiazol-4-yl)-1-azabicyclo[2.2.2]octane fumarate] as the compound, how does the “Inhibition in vitro OXO BINDING IC50” value read?
Answer: The value was 0.65 ng/mL.

Question: With CCCCCCSc1nsnc1C1CN2CCC1CC2.O=C(O)/C=C/C(=O)O (stereo not shown) [Compound 14, 3-(3-Hexylthio-1,2,5-thiadiazol-4-yl)-1-azabicyclo[2.2.2]octane fumarate] as the compound, how does the “Inhibition in vitro OXO BINDING IC50” value read?
Answer: Its value is 4.8 ng/mL.

Question: With CCOc1nsnc1C1=C(Cl)CC2CCC1N2.O=C(O)C(=O)O (stereo not shown) [Compound 43, 3-Chloro-2-(3-ethoxy-1,2,5-thiadiazol-4-yl)-8-azabicyclo[3.2.1]oct-2-ene oxalate] as the compound, how does the “Inhibition in vitro OXO BINDING IC50” value read?
Answer: Its value is 2.33 ng/mL.

Question: Which “Inhibition in vitro OXO BINDING IC50” value does the source give for O=C(O)/C=C/C(=O)O.c1ccc(CCCSc2nsnc2C2CN3CCC2CC3)cc1 (stereo not shown) [Compound 44, 3-(3-(3-Phenylpropylthio)-1,2,5-thiadiazol-4-yl)-1-azabicyclo[2.2.2]octane fumarate] here?
Answer: Its value is 4.7 ng/mL.

Question: For N#Cc1ccc(CSc2nsnc2C2CN3CCC2CC3)cc1.O=C(O)C(=O)O (stereo not shown) [Compound 45, 3-(3-(4-Cyanobenzylthio)-1,2,5-thiadiazol-4-yl)-1-azabicyclo[2.2.2]octane oxalate], which “Inhibition in vitro OXO BINDING IC50” value is on record?
Answer: The value was 1.6 ng/mL.

Question: With CCCCOc1nsnc1C1CN2CCC1CC2.O=C(O)C(=O)O (stereo not shown) [Compound 46, 3-(3-Butoxy-1,2,5-thiadiazol-4-yl)-1-azabicyclo[2.2.2]octane oxalate] as the compound, how does the “Inhibition in vitro OXO BINDING IC50” value read?
Answer: Its value is 0.56 ng/mL.

Question: How did the “Inhibition in vitro OXO BINDING IC50” value turn out when ClC1=C(c2nsnc2Cl)C2CCC(C1)N2.O=C(O)C(=O)O (stereo not shown) [Compound 47, 3-Chloro-2-(3-chloro-1,2,5-thiadiazol-4-yl)-8-azabicyclo[3.2.1]oct-2-ene oxalate] was run?
Answer: The value was greater than 300 ng/mL.

Question: Which “Inhibition in vitro OXO BINDING IC50” value does the source give for C=CCCCCOc1nsnc1C1CN2CCC1CC2.O=C(O)/C=C/C(=O)O (stereo not shown) [Compound 48, 3-(3-(5-Hexenyloxy)-1,2,5-thiadiazol-4-yl)-1-azabicyclo[2.2.2]octane fumarate] here?
Answer: Its value is 0.43 ng/mL.

Question: For CCC=CCCOc1nsnc1C1CN2CCC1CC2.O=C(O)/C=C/C(=O)O (stereo not shown) [Compound 49, 3-(3-(3-Hexenyloxy)-1,2,5-thiadiazol-4-yl)-1-azabicyclo[2.2.2]octane fumarate], which “Inhibition in vitro OXO BINDING IC50” value is on record?
Answer: The value was 0.33 ng/mL.

Question: CCCCCOc1nsnc1C1CN2CCC1CC2.O=C(O)C(=O)O (stereo not shown) [Compound 50, 3-(3-Pentyloxy-1,2,5-thiadiazol-4-yl)-1-azabicyclo[2.2.2]octane oxalate] was tested. Which “Inhibition in vitro OXO BINDING IC50” value did it give?
Answer: Its value is 1.0 ng/mL.

Question: Which “Inhibition in vitro OXO BINDING IC50” value does the source give for CC(C)CCOc1nsnc1C1CN2CCC1CC2.O=C(O)C(=O)O (stereo not shown) [Compound 51, 3-(3-Isopentyloxy-1,2,5-thiadiazol-4-yl)-1-azabicyclo[2.2.2]octane oxalate] here?
Answer: Its value is 0.89 ng/mL.

Question: With CCSc1nsnc1C1CN2CCC1CC2.O=C(O)C(=O)O (stereo not shown) [Compound 52, 3-(3-Ethylthio-1,2,5-thiadiazol-4-yl)-1-azabicyclo[2.2.2]octane oxalate] as the compound, how does the “Inhibition in vitro OXO BINDING IC50” value read?
Answer: The value was 0.61 ng/mL.

Question: How did the “Inhibition in vitro OXO BINDING IC50” value turn out when CCCSc1nsnc1C1CN2CCC1CC2.O=C(O)C(=O)O (stereo not shown) [Compound 53, 3-(3-Propylthio-1,2,5-thiadiazol-4-yl)-1-azabicyclo[2.2.2]octane oxalate] was run?
Answer: Its value is 0.3 ng/mL.

Question: For CCCCCCCSc1nsnc1C1CN2CCC1CC2.O=C(O)/C=C/C(=O)O (stereo not shown) [Compound 54, 3-(3-Heptylthio-1,2,5-thiadiazol-4-yl)-1-azabicyclo[2.2.2]octane fumarate], which “Inhibition in vitro OXO BINDING IC50” value is on record?
Answer: The value was 3.1 ng/mL.

Question: How did the “Inhibition in vitro OXO BINDING IC50” value turn out when CCCOc1nsnc1C1=C(Cl)C2CCCN(C1)C2 (stereo not shown) [Compound 62, 4-Chloro-3-(3-propyloxy-1,2,5-thiadiazol-4-yl)-1-azabicyclo[3.3.1]non-3-eneoxalate] was run?
Answer: Its value is 1.9 ng/mL.

Question: CCCCCOc1nsnc1C1=C(Cl)C2CCCN(C1)C2 (stereo not shown) [Compound 63, 4-Chloro-3-(3-pentyloxy-1,2,5-thiadiazol-4-yl)-1-azabicyclo[3.3.1]non-3-eneoxalate] was tested. Which “Inhibition in vitro OXO BINDING IC50” value did it give?
Answer: Its value is 8.2 ng/mL.
